This passage reports IC50 and viability, T/C results from PubChem BioAssay AID1918941 (Molecular Pharmacology Branch, DTP, NCI, 2023).

For orientation: IC50 means the concentration that gives 50% inhibition. One may read the viability, T/C as the ratio of treated to control.

The subject of the experiment is SW 1271 complex spheroids, viability. In words: Anticancer human tumor SW 1271 cell line growth inhibition [LSD1].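 As to all read-outs here: spheroids exposed to agents for 7 days before luminescence read.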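 As to viability, T/C: 100% = DMSO vehicle control viability.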 The note with it: for viability, T/C: stronger effect = lower value. Summed up:
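Complex spheroids of tumor cells with HUVEC and human MSCs, exposed to iadademstat combined with other agents. Each agent tested in half-log steps from near clinical Cmax (else 10 microM top), DMSO ≤0.25%.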

Where [1] appears, read: curve of first compound, second compound 0.1 µM.
Where [2] appears, read: curve of first compound, second compound 0.316 µM.
The mark [3] stands for this setting: curve of first compound, second compound 1 µM.
[4] abbreviates: curve of first compound, second compound 3.16 µM.
The mark [5] stands for this setting: curve of first compound, second compound 10 µM.
[6] abbreviates: second compound 0.1 µM, first compound 0.0316 µM.
[7] abbreviates: second compound 0.1 µM, first compound 0.1 µM.
The mark [8] stands for this setting: second compound 0.1 µM, first compound 0.316 µM.
The mark [9] stands for this setting: second compound 0.1 µM, first compound 1 µM.
The mark [10] stands for this setting: second compound 0.1 µM, first compound 3.16 µM.
[11] abbreviates: second compound 0.1 µM, first compound 10 µM.
Where [12] appears, read: second compound 0.316 µM, first compound 0.0316 µM.
[13] abbreviates: second compound 0.316 µM, first compound 0.1 µM.
[14] abbreviates: second compound 0.316 µM, first compound 0.316 µM.
[15] abbreviates: second compound 0.316 µM, first compound 1 µM.
Setting [16] is: second compound 0.316 µM, first compound 3.16 µM.
The mark [17] stands for this setting: second compound 0.316 µM, first compound 10 µM.
[18] abbreviates: second compound 1 µM, first compound 0.0316 µM.
Setting [19] is: second compound 1 µM, first compound 0.1 µM.
[20] abbreviates: second compound 1 µM, first compound 0.316 µM.
Setting [21] is: second compound 1 µM, first compound 1 µM.
Setting [22] is: second compound 1 µM, first compound 3.16 µM.
Where [23] appears, read: second compound 1 µM, first compound 10 µM.
[24] abbreviates: second compound 3.16 µM, first compound 0.0316 µM.
The mark [25] stands for this setting: second compound 3.16 µM, first compound 0.1 µM.
The mark [26] stands for this setting: second compound 3.16 µM, first compound 0.316 µM.
Where [27] appears, read: second compound 3.16 µM, first compound 1 µM.
Setting [28] is: second compound 3.16 µM, first compound 3.16 µM.
The mark [29] stands for this setting: second compound 3.16 µM, first compound 10 µM.
Setting [30] is: second compound 10 µM, first compound 0.0316 µM.
[31] abbreviates: second compound 10 µM, first compound 0.1 µM.
Where [32] appears, read: second compound 10 µM, first compound 0.316 µM.
The mark [33] stands for this setting: second compound 10 µM, first compound 1 µM.
Where [34] appears, read: second compound 10 µM, first compound 3.16 µM.
Setting [35] is: second compound 10 µM, first compound 10 µM.

Values joined by “and” are separate entries in the source; they are usually repeats but may differ in a detail not shown here. Identical values can stand only once.

As for `CC(C)c1c(-c2ccccc2)nc2c(C#N)c[nH]n2c1=O` + NC1CC1c1ccc(-c2cccc(O)c2)cc1, the IC50 is > 10 µM under setting [1]; > 10 µM under setting [2]; > 10 µM under setting [3]; 9.23 µM under setting [4]; > 10 µM under setting [5]. The viability, T/C reads like this: under setting [6], 71.8%; under setting [7], 86%; under setting [8], 78.7%; under setting [9], 77.5%; under setting [10], 73.2%; under setting [11], 72.9%. For the same compound, the viability, T/C is 74.7% under setting [12]; 70.4% under setting [13]; 80.9% under setting [14]; 52.4% under setting [15]; 58.5% under setting [16]; 61.6% under setting [17]. Besides, the viability, T/C by setting is: under setting [18], 66.4%; under setting [19], 96.2%; under setting [20], 78.4%; under setting [21], 75%; under setting [22], 58.6%; under setting [23], 61.3%. The viability, T/C under setting [24] is 70.5%; the viability, T/C under setting [25] is 68.4%; the viability, T/C under setting [26] is 70%; the viability, T/C under setting [27] is 58.2%; the viability, T/C under setting [28] was 58.9%; the viability, T/C under setting [29] is 49.2%. Further, the viability, T/C under setting [30] was 56.6%; the viability, T/C under setting [31] was 63%; the viability, T/C under setting [32] was 82.6%; the viability, T/C under setting [33] was 61.6%; the viability, T/C under setting [34] was 50.8%; the viability, T/C under setting [35] is 54.1%.
As to `COc1ccc([C@@H](O)c2cc(-c3ncnc4cc(N5CCOCC5)ccc34)c(F)cc2Cl)nn1`, the viability, T/C is, setting by setting: (compound 0.0316 µM) 79.9% and 85.5%; (compound 0.1 µM) 74.7% and 91.9%; (compound 0.316 µM) 54.5% and 64%; (compound 1 µM) 40.4% and 45.4%; (compound 3.16 µM) 31.7% and 28.2%; (compound 10 µM) 20.3% and 21.4%. Also, the IC50 (curve of compound) was 0.523 µM and 0.741 µM.
Consider `NS(=O)(=O)OCC1CC(n2ccc3c(NC4CCc5ccccc54)ncnc32)CC1O` (centres undefined) + NC1CC1c1ccc(-c2cccc(O)c2)cc1, for which the concentration for half-maximal inhibition (IC50) by setting is: under setting [1], > 3 µM; under setting [2], > 3 µM; under setting [3], > 3 µM; under setting [4], > 3 µM; under setting [5], > 3 µM. Moreover, the viability, T/C (second compound 0.1 µM, first compound 0.00949 µM) was 151%; the viability, T/C (second compound 0.1 µM, first compound 0.03 µM) was 123%; the viability, T/C (second compound 0.1 µM, first compound 0.0949 µM) was 103%; the viability, T/C (second compound 0.1 µM, first compound 0.3 µM) is 86%; the viability, T/C (second compound 0.1 µM, first compound 0.949 µM) is 85.5%; the viability, T/C (second compound 0.1 µM, first compound 3 µM) is 88.5%. Besides, the viability, T/C is, setting by setting: (second compound 0.316 µM, first compound 0.00949 µM) 166%; (second compound 0.316 µM, first compound 0.03 µM) 112%; (second compound 0.316 µM, first compound 0.0949 µM) 94.5%; (second compound 0.316 µM, first compound 0.3 µM) 82.3%; (second compound 0.316 µM, first compound 0.949 µM) 82.1%; (second compound 0.316 µM, first compound 3 µM) 79.9%. Further, the viability, T/C is, setting by setting: (second compound 1 µM, first compound 0.00949 µM) 148%; (second compound 1 µM, first compound 0.03 µM) 110%; (second compound 1 µM, first compound 0.0949 µM) 95.9%; (second compound 1 µM, first compound 0.3 µM) 75.8%; (second compound 1 µM, first compound 0.949 µM) 85.9%; (second compound 1 µM, first compound 3 µM) 79%. In addition, the viability, T/C by setting is: (second compound 3.16 µM, first compound 0.00949 µM) 144%; (second compound 3.16 µM, first compound 0.03 µM) 101%; (second compound 3.16 µM, first compound 0.0949 µM) 99.9%; (second compound 3.16 µM, first compound 0.3 µM) 85.5%; (second compound 3.16 µM, first compound 0.949 µM) 75.6%; (second compound 3.16 µM, first compound 3 µM) 83.9%. Besides, the viability, T/C is, setting by setting: (second compound 10 µM, first compound 0.00949 µM) 141%; (second compound 10 µM, first compound 0.03 µM) 116%; (second compound 10 µM, first compound 0.0949 µM) 115%; (second compound 10 µM, first compound 0.3 µM) 101%; (second compound 10 µM, first compound 0.949 µM) 87.3%; (second compound 10 µM, first compound 3 µM) 91.1%.
`O=C(C=Cc1cccc(S(=O)(=O)Nc2ccccc2)c1)NO`: the viability, T/C runs as follows: (compound 0.00949 µM) 89.7% and 88.1%; (compound 0.03 µM) 74.9% and 70.5%; (compound 0.0949 µM) 57.1% and 58.1%; (compound 0.3 µM) 19.1% and 23.3%; (compound 0.949 µM) 9.01% and 12.3%. Further, the IC50 (curve of compound) was 0.228 µM and 0.109 µM.
As to `CC1COCCN1c1cc(-c2ccnn2C)c2ccnc(-c3ccn[nH]3)c2n1` (centres undefined), the viability, T/C was 72.4% and 71.8% (compound 0.00316 µM); 72.6% and 63.3% (compound 0.01 µM); 50.7% and 59% (compound 0.0316 µM); 50.3% and 47.2% (compound 0.1 µM); 48.2% and 43.4% (compound 0.316 µM); 30.1% and 28.4% (compound 1 µM). The IC50 (curve of compound) is 0.108 µM and 0.0921 µM.
As for `CC(C)c1c(-c2ccccc2)nc2c(C#N)c[nH]n2c1=O` + NC1CCC(NC2CC2c2ccccc2)CC1, the 50% inhibitory concentration (IC50) under setting [1] was > 10 µM; the IC50 under setting [2] was > 10 µM; the IC50 under setting [3] was > 10 µM; the IC50 under setting [4] was > 10 µM; the IC50 under setting [5] is > 10 µM. The viability, T/C is 85.7% under setting [6]; 80.3% under setting [7]; 79.1% under setting [8]; 82.8% under setting [9]; 71.1% under setting [10]; 69.4% under setting [11]. Further, the viability, T/C reads like this: under setting [12], 75.2%; under setting [13], 89.2%; under setting [14], 77.9%; under setting [15], 74.2%; under setting [16], 68.9%; under setting [17], 54.7%. Besides, the viability, T/C is 74.1% under setting [18]; 74.8% under setting [19]; 75.5% under setting [20]; 80.1% under setting [21]; 68.8% under setting [22]; 59.4% under setting [23]. In addition, the viability, T/C reads like this: under setting [24], 76.6%; under setting [25], 73.1%; under setting [26], 71.5%; under setting [27], 68.8%; under setting [28], 71.9%; under setting [29], 64.2%. Also, the viability, T/C reads like this: under setting [30], 66.7%; under setting [31], 60.5%; under setting [32], 70.1%; under setting [33], 65.5%; under setting [34], 65.8%; under setting [35], 46.5%.
`CCc1c2c(nc3ccc(O)cc13)-c1cc3c(c(=O)n1C2)COC(=O)[C@]3(O)CC`: the viability, T/C reads like this: (compound 0.000949 µM) 57.8% and 46.7%; (compound 0.003 µM) 55.8% and 41.6%; (compound 0.00949 µM) 23.3% and 28.8%; (compound 0.03 µM) 7.65% and 6.53%; (compound 0.0949 µM) 6.15% and 5.62%; (compound 0.3 µM) 3.93% and 13.3%. Also, the IC50 (curve of compound) was 0.00364 µM and < 0.000949 µM.
Consider `NS(=O)(=O)OCC1CC(n2ccc3c(NC4CCc5ccccc54)ncnc32)CC1O` (centres undefined), for which the viability, T/C (compound 0.00949 µM) is 159% and 149%; the viability, T/C (compound 0.03 µM) was 127% and 122%; the viability, T/C (compound 0.0949 µM) was 83.5% and 85.6%; the viability, T/C (compound 0.3 µM) was 89.7% and 67.7%; the viability, T/C (compound 0.949 µM) is 73.1% and 74.3%; the viability, T/C (compound 3 µM) was 82.1% and 73.2%. For the same compound, under “curve of compound”, the IC50 was > 3 µM.
